Key:
K-562 = assay: NCI SRB cytotoxicity, K-562 (leukemia); type: cell-based, human
Protocol: (§1) Biological Activity: The in vitro biological activity studies were carried out at the National Cancer Institute, Maryland, USA.
(§2) The C8-linked isoxazoline-PBD hybrids have been tested against sixty human tumour cell lines derived from nine cancer types (leukemia, non-small cell lung cancer, colon cancer, CNS cancer, melanoma, ovarian cancer, renal cancer, prostate cancer and breast cancer) as per NCI protocol. For each compound, dose response curves for individual cell lines have been measured at a minimum of five concentrations at 10 fold dilutions. A protocol of 48 hrs continuous drug exposure has been used, and a sulforhodamine B (SRB) protein assay was used to estimate cell viability or growth. The concentration for 50% cell growth inhibition (GI50), total cell growth inhibition (TGI, 0% growth) and 50% cell death (LC50, […]) compared with the control has been calculated (FIG. 2).
(§3) Compound 5b and 9b have been evaluated for in vitro cytotoxicity in sixty cell lines from nine human cancer types of lung (Hop-62, NCI-H226, NCI-H522), leukemia (K-562, SR), colon (HCT-116, HCT-15, HCC-2998), CNS(SF-539), melanoma (SK-MEL-5, UACC-62, M14), ovarian (IGROV1), renal (A498), prostate (PC3) breast (BT-549, MDA-MB-435, HS578T) origin. The results are expressed as percent of cell growth determined relative to that of untreated control cells (Table 1).

[1] = system: Non small cell lung cancer; assay: NCI SRB cytotoxicity, non-small cell lung cancer panel; type: cell-based, human; conditions: average of six to eight different cancer cell lines; for Log10 LC50: 50% lethality
Protocol: as §1, §2, §3

MOLT-4 = assay: NCI SRB cytotoxicity, MOLT-4 (leukemia); type: cell-based, human; conditions: 48 hrs exposure
Protocol: as §1, §2, §3

NCI-H23 = assay: NCI SRB cytotoxicity, NCI-H23 (non-small cell lung); type: cell-based, human; conditions: NCI-H23, Non-smallcell lung; 48 hrs exposure
Protocol: as §1, §2, §3

HS 578T = assay: NCI SRB cytotoxicity, HS 578T (breast); type: cell-based, human
Protocol: as §1, §2, §3

IGROV1 = assay: NCI SRB cytotoxicity, IGROV1 (ovarian); type: cell-based, human
Protocol: as §1, §2, §3

MCF7 = assay: NCI SRB cytotoxicity, MCF7 (breast); type: cell-based, human; conditions: 48 hrs exposure
Protocol: as §1, §2, §3

MDA-MB-468 = assay: NCI SRB cytotoxicity, MDA-MB-468 (breast); type: cell-based, human; conditions: 48 hrs exposure
Protocol: as §1, §2, §3

SR = assay: NCI SRB cytotoxicity, SR (leukemia); type: cell-based, human
Protocol: as §1, §2, §3

UO-31 = assay: NCI SRB cytotoxicity, UO-31 (renal); type: cell-based, human; conditions: 48 hrs exposure
Protocol: as §1, §2, §3

[2] = system: duplex-form calf thymus DNA (CT-DNA); assay: Thermal denaturation studies with calf thymus DNA; type: binding; conditions: [PBD]:[DNA] molar ratio 1:5, CT-DNA 100 μM, ligand 20 μM, pH 7.00
Protocol: Compounds have been subjected to thermal denaturation studies with duplex-form calf thymus DNA (CT-DNA) using a modification of a reported procedure. Working solutions in aqueous buffer (10 mM NaH2PO4/Na2HPO4, 1 mM Na2EDTA, pH 7.00+0.01) containing CT-DNA (100 (μm in phosphate) and the PBD (20(μm) have been prepared by addition of concentrated PBD solutions in DMSO to obtain a fixed [PBD]/[DNA] molar ratio of 1:5. The DNA-PBD solutions have been incubated at 37° C. for 0 and 18 hrs prior to analysis. Samples have been monitored at 260 nm using a Beckman DU-800 spectrophotometer fitted with high performance temperature controller, and heated at 1° C. min^−1 in the 40-110° C. range. DNA helix→coil transition temperatures (Tm) have been obtained from the maxima in the d(A260)/d T derivative plots. Drug-induced alterations in DNA melting behavior are given by: ΔTm=Tm(DNA+PBD)−Tm(DNA alone), where the Tm value for the PBD-free CT-DNA is 68.5±0.01.
The DNA-binding for these novel C8-linked isoxazoline-PBD hybrids has been examined by thermal denaturation studies using calf thymus CT-DNA. […] Data for 5a-c, 9b and 9g and DC-81 are included in Table 4 for comparison.

TK-10 = assay: NCI SRB cytotoxicity, TK-10 (renal); type: cell-based, human; conditions: 48 hrs exposure
Protocol: as §1, §2, §3

EKVX = assay: NCI SRB cytotoxicity, EKVX (non-small cell lung); type: cell-based, human; conditions: Non-smallcell lung, 48 hrs exposure
Protocol: as §1, §2, §3

MDA-MB- = assay: NCI SRB cytotoxicity, MDA-MB- (breast); type: cell-based, human; conditions: 48 hrs exposure
Protocol: as §1, §2, §3

SK-MEL-2 = assay: NCI SRB cytotoxicity, SK-MEL-2 (melanoma); type: cell-based, human; conditions: 48 hrs exposure
Protocol: as §1, §2, §3

OVCAR-8 = assay: NCI SRB cytotoxicity, OVCAR-8 (ovarian); type: cell-based, human; conditions: 48 hrs exposure
Protocol: as §1, §2, §3

HL-60(TB) = assay: NCI SRB cytotoxicity, HL-60(TB) (leukemia); type: cell-based, human; conditions: 48 hrs exposure
Protocol: as §1, §2, §3

HT29 = assay: NCI SRB cytotoxicity, HT29 (colon); type: cell-based, human; conditions: 48 hrs exposure
Protocol: as §1, §2, §3

HCT-15 = assay: NCI SRB cytotoxicity, HCT-15 (colon); type: cell-based, human
Protocol: as §1, §2, §3

Leukemia = assay: NCI SRB cytotoxicity, leukemia panel; type: cell-based, human; conditions: average of six to eight different cancer cell lines; for Log10 LC50: 50% lethality
Protocol: as §1, §2, §3

SF-268 = assay: NCI SRB cytotoxicity, SF-268 (CNS); type: cell-based, human; conditions: 48 hrs exposure
Protocol: as §1, §2, §3

PC-3 = assay: NCI SRB cytotoxicity, PC-3 (prostate); type: cell-based, human
Protocol: as §1, §2, §3

MALME-3M = assay: NCI SRB cytotoxicity, MALME-3M (melanoma); type: cell-based, human; conditions: 48 hrs exposure
Protocol: as §1, §2, §3

RXF 393 = assay: NCI SRB cytotoxicity, RXF 393 (renal); type: cell-based, human; conditions: 48 hrs exposure
Protocol: as §1, §2, §3

NCI-H522 = assay: NCI SRB cytotoxicity, NCI-H522 (non-small cell lung); type: cell-based, human
Protocol: as §1, §2, §3

COLO 205 = assay: NCI SRB cytotoxicity, COLO 205 (colon); type: cell-based, human; conditions: 48 hrs exposure
Protocol: as §1, §2, §3

A549/ATCC = assay: NCI SRB cytotoxicity, A549/ATCC (non-small cell lung); type: cell-based, human; conditions: Non-smallcell lung, 48 hrs exposure
Protocol: as §1, §2, §3

NCI-H322M = assay: NCI SRB cytotoxicity, NCI-H322M (non-small cell lung); type: cell-based, human; conditions: Non-smallcell lung, 48 hrs exposure
Protocol: as §1, §2, §3

M14 = assay: NCI SRB cytotoxicity, M14 (melanoma); type: cell-based, human
Protocol: as §1, §2, §3

[3] = K-562, Leukemia, 48 hrs exposure
[4] = HS 578T, Breast, 48 hrs exposure
[5] = IGROV1, Ovarian, 48 hrs exposure
[6] = PC-3, Prostate, 48 hrs exposure
[7] = NCI-H522, Non-smallcell lung, 48 hrs exposure

| Compound | GI50 (K-562; [3]) | Log10 LC50 [1] | Log10GI50 [1] | GI50 (MOLT-4) | GI50 (NCI-H23) | GI50 (HS 578T; [4]) | GI50 (IGROV1; [5]) | GI50 (MCF7) | GI50 (MDA-MB-468) | GI50 (SR; SR, Leukemia, 48 hrs exposure) | GI50 (UO-31) | ΔTm after incubation at 37° C. for 0 hrs [2] | ΔTm after incubation at 37° C. for 18 hrs [2] | GI50 (TK-10) | GI50 (EKVX) | GI50 (MDA-MB-) | GI50 (SK-MEL-2) | GI50 (OVCAR-8) | GI50 (HL-60(TB)) | GI50 (HT29) | further results |
| --- | --- | --- | --- | --- | --- | --- | --- | --- | --- | --- | --- | --- | --- | --- | --- | --- | --- | --- | --- | --- | --- |
| COc1cc(C2=NOC(c3cc(OC)c(OC)c(OC)c3)C2)ccc1OCCCCOc1cc2c(cc1OC)C(=O)N1CCC[C@H]1C=N2 (stereo partly drawn) [Compound 5b, (11aS)-7-(methyloxy)-8-(4-[(2-(methyloxy)-4-5-[3,4,5-tri(methyloxy)phenyl]-4,5-dihydro-3-isoxazolylphenyl)oxy]butyloxy)-2,3,5,11a-tetrahydro-1H benzo[e]pyrrolo[1,2-a][1,4]diazepin-5-one] | 0.12 µM | −4.78 mol/L | −6.59 mol/L | 0.2 µM | 0.27 µM | 0.16 µM | 0.24 µM | 0.2 µM | 0.22 µM | 0.14 µM | 0.29 µM | 4.1 °C | 6.2 °C | 0.28 µM | 0.46 µM | 0.19 µM | 0.23 µM | 0.37 µM | 0.18 µM | 0.36 µM | GI50 (K-562; leukemia K-562): 0.12 µM; GI50 (HS 578T; breast HS 578T): 0.16 µM; GI50 (IGROV1; ovarian IGROV1): 0.24 µM; GI50 (SR; leukemia SR): 0.14 µM; GI50 (HCT-15; HCT-15, Colon, 48 hrs exposure): 0.18 µM; GI50 (HCT-15; colon cancer HCT-15): 0.19 µM; Log10 LC50 (Leukemia): −4.18 mol/L; Log10GI50 (Leukemia): −6.76 mol/L; GI50 (SF-268): 0.34 µM; GI50 (PC-3; [6]): 0.32 µM; GI50 (PC-3; prostate PC-3): 0.32 µM; GI50 (MALME-3M): 0.21 µM; GI50 (RXF 393): 0.21 µM; GI50 (NCI-H522; [7]): 0.12 µM; GI50 (NCI-H522; non-small cell lung cancer NCI-H522): 0.12 µM; GI50 (COLO 205): 0.21 µM; GI50 (A549/ATCC): 0.26 µM; GI50 (NCI-H322M): 0.34 µM; GI50 (M14; M14, Melanoma, 48 hrs exposure): 0.18 µM; GI50 (M14; melanoma M14): 0.18 µM |
| COc1ccc(C2CC(c3ccc(OC)c(OC)c3OC)=NO2)cc1OCCCCOc1cc2c(cc1OC)C(=O)N1CCC[C@H]1C=N2 (stereo partly drawn) [Compound 9b, (11aS)-7-(methyloxy)-8-(4-[(2-(methyloxy)-5-3-[2,3,4-tri(methyloxy)phenyl]-4,5-dihydro-5-isoxazolylphenyl)oxy]butyloxy)-2,3,5,11a-tetrahydro-1H-benzo[e]pyrrolo[1,2-a][1,4]diazepin-5-one] | 1.26 µM | −4.73 mol/L | −5.70 mol/L | 1.85 µM | 1.83 µM | 1.1 µM | 1.57 µM | 1.75 µM | 1.34 µM | 1.12 µM | 2.09 µM | 1.2 °C | 2.3 °C | 3.51 µM | 3.68 µM | 1.15 µM | 2.03 µM | 2.55 µM | 1.9 µM | 2.75 µM | GI50 (HCT-15; HCT-15, Colon, 48 hrs exposure): 2.27 µM; Log10 LC50 (Leukemia): −4.37 mol/L; Log10GI50 (Leukemia): −5.83 mol/L; GI50 (SF-268): 1.89 µM; GI50 (PC-3; [6]): 0.58 µM; GI50 (MALME-3M): 2.88 µM; GI50 (RXF 393): 1.39 µM; GI50 (NCI-H522; [7]): 0.61 µM; GI50 (COLO 205): 1.96 µM; GI50 (A549/ATCC): 2.33 µM; GI50 (NCI-H322M): 3.46 µM; GI50 (M14; M14, Melanoma, 48 hrs exposure): 1.73 µM |

Reference: patent US8372831B2, “Isoxazoline linked pyrrolo[2,1-c][1,4]benzodiazepine hybrids as potential anticancer agents and the process for preparation thereof” (Council of Scientific & Industrial Research, priority 2008, dated 2013)
